Results: ChEMBL document CHEMBL1201862, “PubChem BioAssay data set” (2004)
Active and inactive are the calls of the source.

Legend:
[1] = NIH-3T3 fibroblast cytotoxicity, dose response, cytotoxicity control, cell-based, fluorescence, Alamar Blue, secondary assay (AID 2327); type: functional;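 note: NIH-3T3 mouse fibroblasts cultured with fluconazole at 8 µg/mL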
[2] = fluconazole-exposed Candida albicans growth modulators – fluorescence, retest, confirmation (AID 2467); type: functional, cell-based
[3] = target: T1, Leucine aminopeptidase (Plasmodium falciparum 3D7, UniProt Q8IL11); assay: P. falciparum M17LAP inhibitors, primary screen, biochemical, fluorogenic H-Leu-NHMec substrate, 1536-well (AID 1619); type: functional
T1 sequence (Q8IL11 whole entry): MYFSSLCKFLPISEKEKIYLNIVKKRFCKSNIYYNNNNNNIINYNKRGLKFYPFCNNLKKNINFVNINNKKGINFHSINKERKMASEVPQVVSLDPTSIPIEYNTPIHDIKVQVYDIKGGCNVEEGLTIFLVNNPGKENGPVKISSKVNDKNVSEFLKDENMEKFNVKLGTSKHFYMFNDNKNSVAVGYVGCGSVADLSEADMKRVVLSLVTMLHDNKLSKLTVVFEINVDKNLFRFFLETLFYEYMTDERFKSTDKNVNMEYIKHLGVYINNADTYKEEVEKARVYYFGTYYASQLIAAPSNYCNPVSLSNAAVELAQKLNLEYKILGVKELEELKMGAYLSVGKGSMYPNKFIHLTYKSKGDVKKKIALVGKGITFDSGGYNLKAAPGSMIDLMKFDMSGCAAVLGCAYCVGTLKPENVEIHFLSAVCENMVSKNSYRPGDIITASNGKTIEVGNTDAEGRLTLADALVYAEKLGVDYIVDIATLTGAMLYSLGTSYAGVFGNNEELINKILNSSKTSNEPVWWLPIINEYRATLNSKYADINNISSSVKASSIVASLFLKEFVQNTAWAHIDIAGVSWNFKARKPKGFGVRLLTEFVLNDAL

[4] = NIH3T3 cell viability loss – ATP luminescence, mouse fibroblasts, counter-screen, dose response (AID 2010); type: functional, cell-based;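 note: cells exposed to compound for about 90 hours before reading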
[5] = Trypanosoma cruzi growth suppression in host cells – NIH3T3 host cells, beta-gal luminescence, confirmation (AID 2044); type: functional, cell-based;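 note: intracellular parasites grown in NIH/3T3 mouse fibroblasts as host cells; luminescent beta-galactosidase reporter signal from transgenic T. cruzi replicating inside host cells; inhibitors lower the luminescence signal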
[6] = test system: Vero; assay: cells; type: functional; conditions: Chlorocebus sabaeus
[7] = target: T2, Fatty acid synthase (Homo sapiens, UniProt P49327); assay: inhibition of human FAS-TE enzyme activity – biochemical, endpoint fluorescence intensity, uHTS hits, dose response (AID 624327); type: functional;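 note: fluorescence from hydrolysis of an O-methyl fluorescein acyl ester substrate by the enzyme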
T2 sequence (P49327 whole entry): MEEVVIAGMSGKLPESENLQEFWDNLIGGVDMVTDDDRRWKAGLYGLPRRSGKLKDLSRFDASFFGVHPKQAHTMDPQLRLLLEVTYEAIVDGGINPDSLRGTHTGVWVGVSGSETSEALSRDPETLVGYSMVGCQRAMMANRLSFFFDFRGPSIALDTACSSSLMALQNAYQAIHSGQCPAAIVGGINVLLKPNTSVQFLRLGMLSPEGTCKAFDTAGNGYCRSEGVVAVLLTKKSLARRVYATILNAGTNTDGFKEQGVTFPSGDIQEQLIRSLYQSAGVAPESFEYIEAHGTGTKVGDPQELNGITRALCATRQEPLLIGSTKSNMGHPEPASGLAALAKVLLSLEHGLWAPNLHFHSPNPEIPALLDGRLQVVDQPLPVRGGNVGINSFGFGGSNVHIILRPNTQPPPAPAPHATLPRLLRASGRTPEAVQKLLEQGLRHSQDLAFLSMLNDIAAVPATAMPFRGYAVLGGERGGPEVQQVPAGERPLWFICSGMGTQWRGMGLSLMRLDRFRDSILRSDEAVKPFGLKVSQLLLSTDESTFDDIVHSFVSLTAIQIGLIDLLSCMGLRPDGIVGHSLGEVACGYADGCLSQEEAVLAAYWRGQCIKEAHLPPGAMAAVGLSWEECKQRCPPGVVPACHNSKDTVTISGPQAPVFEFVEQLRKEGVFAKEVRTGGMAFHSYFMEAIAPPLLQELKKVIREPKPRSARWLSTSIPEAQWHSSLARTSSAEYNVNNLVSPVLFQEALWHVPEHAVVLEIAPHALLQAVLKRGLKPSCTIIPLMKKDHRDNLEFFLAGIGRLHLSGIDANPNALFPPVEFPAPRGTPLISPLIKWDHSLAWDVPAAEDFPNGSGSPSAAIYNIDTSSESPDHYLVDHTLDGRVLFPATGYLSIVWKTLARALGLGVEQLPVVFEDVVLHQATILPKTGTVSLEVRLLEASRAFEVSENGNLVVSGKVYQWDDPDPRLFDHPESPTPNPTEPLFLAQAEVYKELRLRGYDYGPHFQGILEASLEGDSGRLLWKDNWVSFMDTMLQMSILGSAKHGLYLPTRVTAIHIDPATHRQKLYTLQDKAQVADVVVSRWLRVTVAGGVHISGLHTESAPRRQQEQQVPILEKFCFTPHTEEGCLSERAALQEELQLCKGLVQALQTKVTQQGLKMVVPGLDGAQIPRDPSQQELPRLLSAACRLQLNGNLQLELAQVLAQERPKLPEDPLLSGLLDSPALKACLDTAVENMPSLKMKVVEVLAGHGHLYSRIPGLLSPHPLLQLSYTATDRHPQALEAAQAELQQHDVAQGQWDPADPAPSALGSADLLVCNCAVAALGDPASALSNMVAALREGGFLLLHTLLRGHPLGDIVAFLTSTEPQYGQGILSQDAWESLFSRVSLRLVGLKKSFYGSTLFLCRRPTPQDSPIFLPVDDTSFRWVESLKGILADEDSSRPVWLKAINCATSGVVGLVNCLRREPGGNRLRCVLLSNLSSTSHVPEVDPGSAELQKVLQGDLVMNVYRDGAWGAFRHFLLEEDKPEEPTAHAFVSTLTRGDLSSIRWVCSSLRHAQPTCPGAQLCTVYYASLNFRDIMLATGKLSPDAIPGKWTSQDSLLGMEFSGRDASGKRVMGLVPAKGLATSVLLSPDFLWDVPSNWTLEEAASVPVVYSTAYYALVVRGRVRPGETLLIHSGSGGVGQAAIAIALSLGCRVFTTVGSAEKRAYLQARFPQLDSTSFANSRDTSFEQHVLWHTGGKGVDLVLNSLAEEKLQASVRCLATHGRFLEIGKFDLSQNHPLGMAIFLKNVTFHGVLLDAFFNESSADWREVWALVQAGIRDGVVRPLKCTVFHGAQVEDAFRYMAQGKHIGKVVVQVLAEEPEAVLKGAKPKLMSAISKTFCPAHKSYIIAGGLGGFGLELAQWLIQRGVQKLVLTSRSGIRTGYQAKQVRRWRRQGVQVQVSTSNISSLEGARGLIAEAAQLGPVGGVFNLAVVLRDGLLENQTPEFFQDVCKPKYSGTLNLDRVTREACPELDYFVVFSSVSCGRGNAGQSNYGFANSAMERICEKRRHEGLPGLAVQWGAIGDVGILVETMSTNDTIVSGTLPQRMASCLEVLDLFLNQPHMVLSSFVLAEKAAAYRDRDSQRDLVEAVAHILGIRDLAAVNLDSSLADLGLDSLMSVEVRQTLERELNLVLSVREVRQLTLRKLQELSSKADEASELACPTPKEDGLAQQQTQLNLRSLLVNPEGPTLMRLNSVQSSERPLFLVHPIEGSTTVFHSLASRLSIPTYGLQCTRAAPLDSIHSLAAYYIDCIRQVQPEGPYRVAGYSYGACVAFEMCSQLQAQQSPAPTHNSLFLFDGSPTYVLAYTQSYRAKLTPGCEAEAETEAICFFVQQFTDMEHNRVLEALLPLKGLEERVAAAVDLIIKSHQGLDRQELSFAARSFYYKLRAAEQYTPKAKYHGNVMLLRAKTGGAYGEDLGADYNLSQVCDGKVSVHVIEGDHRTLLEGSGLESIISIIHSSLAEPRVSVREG

[8] = target: T2, Fatty acid synthase; assay: inhibition of human FAS-TE enzyme activity – biochemical, kinetic fluorescence intensity, dose response (AID 624326); type: functional;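 note: rate of fluorescence rise from hydrolysis of a fluorogenic O-methyl fluorescein ester substrate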
[9] = non-specific 3'UTR reporter inhibition in Clone20-Shn3RL – cell-based, Renilla luciferase, cherry-picked, counter-screen for Shn3 inhibitor project, dose response (AID 624133); type: functional
[10] = reduction of Shn3 3'UTR-driven luciferase in osteoblasts – cell-based, Clone20 osteoblasts, firefly luciferase, cherry-picked, dose response (AID 624132); type: functional;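 note: firefly luciferase luminescence from reporter carrying the Shn3 3'UTR in osteoblasts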
[11] = target: Cytochrome P450 2D6 (Homo sapiens, UniProt P10635);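 note: CYP2D6 member of a cytochrome P450 panel assay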
Sequence of Cytochrome P450 2D6 (P10635 whole entry): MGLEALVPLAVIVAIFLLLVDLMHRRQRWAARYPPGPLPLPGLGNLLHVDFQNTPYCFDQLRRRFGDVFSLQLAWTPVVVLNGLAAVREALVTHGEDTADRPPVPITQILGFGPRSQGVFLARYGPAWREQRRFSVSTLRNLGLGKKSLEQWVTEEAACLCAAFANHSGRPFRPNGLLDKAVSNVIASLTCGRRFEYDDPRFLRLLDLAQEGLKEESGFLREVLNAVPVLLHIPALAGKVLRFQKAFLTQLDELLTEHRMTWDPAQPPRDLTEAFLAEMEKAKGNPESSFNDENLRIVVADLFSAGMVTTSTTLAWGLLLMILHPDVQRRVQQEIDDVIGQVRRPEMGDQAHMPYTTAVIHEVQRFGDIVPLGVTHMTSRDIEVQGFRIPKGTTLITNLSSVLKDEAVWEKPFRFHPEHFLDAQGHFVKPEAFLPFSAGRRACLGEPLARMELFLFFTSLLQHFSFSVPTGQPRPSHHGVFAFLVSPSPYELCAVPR

[12] = target: Cytochrome P450 2C9 (Homo sapiens, UniProt P11712)
Sequence of Cytochrome P450 2C9 (P11712 whole entry): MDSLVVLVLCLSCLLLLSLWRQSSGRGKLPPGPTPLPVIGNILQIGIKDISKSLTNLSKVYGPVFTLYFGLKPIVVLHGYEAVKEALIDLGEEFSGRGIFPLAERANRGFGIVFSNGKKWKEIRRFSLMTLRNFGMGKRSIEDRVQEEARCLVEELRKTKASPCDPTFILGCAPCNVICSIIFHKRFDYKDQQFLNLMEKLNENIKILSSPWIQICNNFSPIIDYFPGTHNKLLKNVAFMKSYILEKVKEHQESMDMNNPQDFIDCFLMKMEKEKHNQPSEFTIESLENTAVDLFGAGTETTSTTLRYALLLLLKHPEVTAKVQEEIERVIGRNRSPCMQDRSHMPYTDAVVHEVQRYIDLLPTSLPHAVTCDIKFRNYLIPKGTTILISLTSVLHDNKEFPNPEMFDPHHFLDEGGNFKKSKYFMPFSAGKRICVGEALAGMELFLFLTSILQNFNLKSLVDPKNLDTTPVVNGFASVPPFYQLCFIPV

[13] = Luminescence Cell-Based Dose Response HTS to Identify Activators of Luciferase Translation or Activity in H4 […] Cells. [Related pubchem assays: 1829 (Project Summary), 1814 (Primary HTS)]; type: functional
[14] = Luminescence Cell-Based Dose Confirmation HTS to Identify Activators of 5'UTR Stem-Loop Driven Alpha-Synuclein mRNA Translation in H4 Neuroglioblastoma Cells. [Related pubchem assays: 1829 (Project Summary), 1814 (Primary HTS)]; type: functional
[15] = test system: H4; assay: Luminescence Cell-Based Dose Response HTS to Identify Activators of 5'UTR Stem-Loop Driven Prion Protein mRNA Translation in H4 Neuroglioblastoma Cells. [Related pubchem assays: 1829 (Project Summary), 1814 (Primary HTS)]; type: functional; conditions: Homo sapiens
[16] = target: T3, Protein RecA (Mycobacterium tuberculosis, UniProt P9WHJ3); assay: Fluorescence Cell-Free Homogeneous Dose Retest to Identify Inhibitors of RecA-Intein Splicing Activity. [Related pubchem assays (depositor defined):AID2097, AID2223, AID489010, AID492950]; type: functional
T3 sequence (P9WHJ3 whole entry): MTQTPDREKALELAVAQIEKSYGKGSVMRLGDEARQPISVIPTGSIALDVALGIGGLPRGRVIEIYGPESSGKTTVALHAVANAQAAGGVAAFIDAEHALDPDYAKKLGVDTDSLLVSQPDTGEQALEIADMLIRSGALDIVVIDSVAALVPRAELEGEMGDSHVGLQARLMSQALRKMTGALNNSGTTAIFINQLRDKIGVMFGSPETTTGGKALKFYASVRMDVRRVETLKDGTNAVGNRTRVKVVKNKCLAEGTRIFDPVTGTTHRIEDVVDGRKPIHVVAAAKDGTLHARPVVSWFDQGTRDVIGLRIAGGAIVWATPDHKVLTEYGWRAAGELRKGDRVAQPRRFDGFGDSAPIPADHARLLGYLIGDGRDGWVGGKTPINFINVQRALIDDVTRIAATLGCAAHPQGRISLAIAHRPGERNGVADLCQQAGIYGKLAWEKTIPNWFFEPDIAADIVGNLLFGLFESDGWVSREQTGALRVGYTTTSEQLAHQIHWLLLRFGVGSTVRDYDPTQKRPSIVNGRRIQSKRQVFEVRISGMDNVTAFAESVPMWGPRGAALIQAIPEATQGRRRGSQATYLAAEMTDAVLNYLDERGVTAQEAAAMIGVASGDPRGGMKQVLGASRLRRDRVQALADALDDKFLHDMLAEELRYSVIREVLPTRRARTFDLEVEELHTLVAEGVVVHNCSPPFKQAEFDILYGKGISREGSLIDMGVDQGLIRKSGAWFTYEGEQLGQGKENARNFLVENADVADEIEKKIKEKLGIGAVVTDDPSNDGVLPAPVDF

[17] = target: T4, Polyadenylate-binding protein 1 (Homo sapiens, UniProt P11940); assay: MLLE domain peptide-binding blockers, IC50 – biochemical, fluorescence polarization, FITC-PAM2 peptide, dose response (AID 602259); type: functional; conditions: read-out: IC50_Mean
T4 sequence (P11940 whole entry, the tested form may be a part): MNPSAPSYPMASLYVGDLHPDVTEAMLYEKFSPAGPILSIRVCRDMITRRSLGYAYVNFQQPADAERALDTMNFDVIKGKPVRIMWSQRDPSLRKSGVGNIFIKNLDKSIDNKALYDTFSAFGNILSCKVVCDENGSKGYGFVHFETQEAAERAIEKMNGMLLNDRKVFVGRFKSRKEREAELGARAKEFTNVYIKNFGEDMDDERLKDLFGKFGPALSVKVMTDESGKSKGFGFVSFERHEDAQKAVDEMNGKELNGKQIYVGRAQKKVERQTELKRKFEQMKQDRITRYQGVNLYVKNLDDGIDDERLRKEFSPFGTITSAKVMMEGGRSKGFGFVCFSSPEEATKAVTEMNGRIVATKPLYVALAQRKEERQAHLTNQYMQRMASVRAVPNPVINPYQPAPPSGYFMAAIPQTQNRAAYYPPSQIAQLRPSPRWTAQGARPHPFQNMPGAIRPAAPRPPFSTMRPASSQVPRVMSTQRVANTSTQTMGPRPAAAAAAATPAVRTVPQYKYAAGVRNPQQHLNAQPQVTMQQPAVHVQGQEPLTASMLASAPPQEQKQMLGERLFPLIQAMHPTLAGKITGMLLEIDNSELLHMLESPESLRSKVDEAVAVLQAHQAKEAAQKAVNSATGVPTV

[18] = target: T4, Polyadenylate-binding protein 1; assay: MLLE binding blockers, Cy5 peptide tracer – biochemical, fluorescence polarization, Cy5-PAM2 peptide, secondary, miRNA deadenylation inhibitor project, dose response (AID 602260); type: functional; conditions: read-out: IC50_Mean
[19] = target: T5, Replicative DNA helicase DnaB (Mycobacterium tuberculosis, UniProt P9WMR3); assay: DnaB intein splicing inhibitors, dose response, biochemical, cell-free fluorescence (AID 449749); type: functional
T5 sequence (P9WMR3 whole entry): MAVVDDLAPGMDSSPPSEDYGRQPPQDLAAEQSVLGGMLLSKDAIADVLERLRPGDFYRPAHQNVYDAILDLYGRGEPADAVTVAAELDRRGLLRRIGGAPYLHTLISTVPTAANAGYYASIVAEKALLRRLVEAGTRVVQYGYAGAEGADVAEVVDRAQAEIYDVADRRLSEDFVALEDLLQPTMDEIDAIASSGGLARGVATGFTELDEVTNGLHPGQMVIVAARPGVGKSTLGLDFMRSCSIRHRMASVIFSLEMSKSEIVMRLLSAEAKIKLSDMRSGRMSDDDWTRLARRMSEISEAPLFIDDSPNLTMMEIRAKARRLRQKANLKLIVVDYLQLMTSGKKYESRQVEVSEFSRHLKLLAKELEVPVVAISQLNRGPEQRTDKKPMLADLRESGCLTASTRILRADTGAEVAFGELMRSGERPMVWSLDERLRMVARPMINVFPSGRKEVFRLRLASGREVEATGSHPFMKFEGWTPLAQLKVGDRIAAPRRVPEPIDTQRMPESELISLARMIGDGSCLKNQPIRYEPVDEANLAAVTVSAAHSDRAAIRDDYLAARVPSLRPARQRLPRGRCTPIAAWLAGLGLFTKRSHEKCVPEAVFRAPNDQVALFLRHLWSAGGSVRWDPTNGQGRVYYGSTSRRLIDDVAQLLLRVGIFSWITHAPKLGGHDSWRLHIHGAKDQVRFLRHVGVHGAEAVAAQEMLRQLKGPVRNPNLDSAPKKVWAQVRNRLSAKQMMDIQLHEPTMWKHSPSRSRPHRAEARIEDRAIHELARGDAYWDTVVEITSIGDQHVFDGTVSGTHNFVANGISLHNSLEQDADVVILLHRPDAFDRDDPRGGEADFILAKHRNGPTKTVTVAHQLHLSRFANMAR

[20] = target: Large T antigen (Simian virus 40, UniProt P03070); type: functional, Betapolyomavirus macacae;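 note: Confirmatory-stage PubChem screen for compounds that inhibit SV40 T antigen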
Sequence of Large T antigen (P03070 whole entry): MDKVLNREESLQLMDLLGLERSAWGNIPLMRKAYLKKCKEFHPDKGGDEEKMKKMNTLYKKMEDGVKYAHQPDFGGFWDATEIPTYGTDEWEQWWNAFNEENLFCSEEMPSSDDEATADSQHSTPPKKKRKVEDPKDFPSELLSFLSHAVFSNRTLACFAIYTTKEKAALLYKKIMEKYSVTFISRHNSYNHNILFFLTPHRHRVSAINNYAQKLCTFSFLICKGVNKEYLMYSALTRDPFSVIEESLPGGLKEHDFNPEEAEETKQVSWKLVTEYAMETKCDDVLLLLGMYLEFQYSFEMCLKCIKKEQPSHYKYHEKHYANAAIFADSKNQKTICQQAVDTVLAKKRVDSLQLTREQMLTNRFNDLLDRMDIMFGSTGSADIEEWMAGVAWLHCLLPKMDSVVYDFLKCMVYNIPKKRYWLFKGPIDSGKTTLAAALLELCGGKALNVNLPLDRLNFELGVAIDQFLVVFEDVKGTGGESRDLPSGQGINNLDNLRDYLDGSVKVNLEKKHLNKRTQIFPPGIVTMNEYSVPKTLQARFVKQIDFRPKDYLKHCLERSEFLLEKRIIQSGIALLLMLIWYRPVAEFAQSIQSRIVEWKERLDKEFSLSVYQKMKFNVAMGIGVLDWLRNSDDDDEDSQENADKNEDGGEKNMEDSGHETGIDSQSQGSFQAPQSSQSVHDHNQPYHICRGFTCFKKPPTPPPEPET

With `CCCCN(C(=O)/C=C/c1ccco1)c1c(N)n(Cc2ccccc2)c(=O)[nH]c1=O` the EC50 [1] was > 150 µM (inactive) and the EC50 [2] was > 38 µM (not active).

With `CCOC(=O)CSc1nnc(-c2ccco2)n1-c1ccc(C)cc1` the IC50 [3] was 37 µM (active).

In the case of `CNc1ncnc(Sc2ccc(Cl)cc2)c1[N+](=O)[O-]`, the EC50 [4] is reported as > 60 µM (not active), the EC50 [5] is reported as 3.2 µM (active) and the CC50 [6] is reported as > 25 µM (active).

In the case of `O=C(/C=C/c1cccc([N+](=O)[O-])c1)NCCSCc1c(Cl)cccc1Cl`, the IC50 [7] is reported as 4.12 µM (active) and the IC50 [8] is reported as 3.92 µM (active).

With `CC1Cc2ccccc2N1Cc1cccc(S(=O)(=O)N(C)C)c1` (stereo not drawn) the AC50 [9] was 23.9 µM (active) and the AC50 [10] was 33 µM (active).

For `CCCCOc1ccc(CN2CCC(O)CC2)cc1`, the AC50 [11] was 0.2 µM (inconclusive) and the AC50 [12] was “inconclusive”.

For `Cc1ccc(C2=NNC3(CCOC(C)(C)C3)S2)cc1` (stereo not drawn), the EC50 [13] was 30.5 µM (active), the EC50 [1] was > 160 µM (inactive) and the EC50 [14] was 14 µM (active). For the same compound, the EC50 [2] was > 38 µM (not active) and the EC50 [15] was 19.1 µM (active).

For `Cc1c(O)c(S(=O)(=O)c2ccccc2)c(=O)n(-c2ccccc2)c1-c1ccccc1`, the IC50 [3] was 9.98 µM (active).

With `COc1cc(C2C3=C(COC3=O)Oc3cc4c(cc32)OCO4)cc(OC)c1OC` (stereo not drawn) the CC50 [6] was < 0.05 µM (active).

For `CCCCOC(=O)CNc1nnc(SCC(=O)OCC)nc1O`, the EC50 [16] was 4.56 µM (active), the IC50 [17] was > 66 µM (inactive) and the IC50 [18] was > 66 µM (inactive). For the same compound, the IC50 [7] was 7.5 µM (active), the AC50 [19] was 2.66 µM (active) and the IC50 [8] was 9.16 µM (active).

With `Cc1cccc(-c2nc3ccccc3c(=O)n2NC(=O)/C=C/c2ccc([N+](=O)[O-])cc2)c1` the EC50 [1] was > 150 µM (inactive) and the EC50 [2] was 0.101 µM (active).

For `O=C(CSc1nc[nH]n1)Nc1ccccc1C(=O)O`, the IC50 [3] was 35.6 µM (active).

In the case of `COc1cccc(N2C(=O)NC(=O)/C(=C\NCCN3CCOCC3)C2=O)c1`, the AC50 [12] is reported as “inconclusive”.

With `Cc1ccc(-c2nnc(NC(=O)c3ccc([N+](=O)[O-])o3)o2)c(C)c1` the EC50 [1] was > 160 µM (inconclusive) and the EC50 [2] was 1.85 µM (active).

In the case of `COc1cccc(CNc2ccc3[nH]c(O)nc3c2)c1OCc1ccccc1`, the IC50 [20] is reported as 16.5 µM (active).

In the case of `Cc1ccc(SC(C)C(=O)Nc2ccc(S(=O)(=O)N3CCOCC3)cc2)cc1` (stereo not drawn), the IC50 [3] is reported as 21.2 µM (active).
